For 18 compounds, EC50 results are on record in patent US9796713B2, “Tricyclic compounds as alpha-7 nicotinic acetylcholine receptor ligands” (BRISTOL-MYERS SQUIBB COMPANY, priority 2014, dated 2017).

The target in one assay is T1, α-7 nicotinic ACh receptor ion channel (Rattus norvegicus, UniProt Q05941).
T1 construct: expressed in transfected cells
T1 sequence (Q05941 23-502): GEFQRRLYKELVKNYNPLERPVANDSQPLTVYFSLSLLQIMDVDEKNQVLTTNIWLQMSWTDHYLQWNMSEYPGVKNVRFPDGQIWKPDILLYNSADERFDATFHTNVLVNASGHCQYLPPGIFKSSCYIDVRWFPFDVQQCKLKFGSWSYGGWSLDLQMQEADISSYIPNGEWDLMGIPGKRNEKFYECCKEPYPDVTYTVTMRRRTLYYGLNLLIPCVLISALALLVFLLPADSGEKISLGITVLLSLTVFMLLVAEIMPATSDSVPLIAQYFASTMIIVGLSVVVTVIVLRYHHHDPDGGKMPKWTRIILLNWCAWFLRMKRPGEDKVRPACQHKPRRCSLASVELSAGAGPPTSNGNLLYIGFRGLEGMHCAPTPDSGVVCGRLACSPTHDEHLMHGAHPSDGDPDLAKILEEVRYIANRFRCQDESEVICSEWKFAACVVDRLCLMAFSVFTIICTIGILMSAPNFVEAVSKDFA
The assay can be described thus: FLIPR Ca2+-sensitive fluorescence assay of α7 nicotinic acetylcholine receptor channel function (agonist activity) in HEK 293 cells. In kind it is cell-based. The settings on record: Table 1; Ca2+ flux, HEK-293 cells expressing the channel. How it is done: I) α7 Nicotinic Acetycholine Receptor Binding. Membranes were prepared for binding using HEK293 cells stably expressing the rat α7 nicotinic acetycholine receptor (rat α7 nAChR). Cells were homogenized at 4° C. in hypotonic lysis buffer consisting of 10 mM Tris (pH 7.4), 5 mM EDTA and protease inhibitors and centrifuged at 32000×g for 20 minutes. The pellet was washed once in membrane wash buffer consisting of 50 mM Tris (pH 7.4), 1 mM EDTA and protease inhibitors and centrifuged at 32000×g for 20 minutes. This pellet was then resuspended in assay buffer consisting 50 mM KH2PO4 (pH 7.4 at 25° C.), 1 mM EDTA, 0.005% Triton-X 100 and 0.1% (v/v) Sigma Protease Inhibitor Cocktail. Aliquots were then frozen in dry ice/ethanol and kept at −80° C. until the day of the assay. II) A Ca^2+-Sensitive, Fluorescence-Based Assay α-7 for Nicotinic Acetylcholine Receptor Channel Function in Mammalian Cells (“FLIPR”). Summary: Lead compounds are evaluated for agonist activity at α-7, α3β4, α4αβ2, and α1β1δ1ε sub-types of nicotinic ACh receptor ion channels expressed in mammalian HEK 293 cells. Agonist potency and efficacy values are determined from kinetic fluorescence Ca^2+ influx measurements made using a 384 well FLIPR (Fluorescence Image Plate Reader). The utility of fluorescent indicators for measuring changes in intracellular divalent cation concentrations, particularly Ca^2+, for drug discovery endeavors is well documented (Rudiger, R., et al., Nature Reviews, 2003, 4:579-586; Gonzalez J. E., et al., Receptors and Channels, 2002, 8:283-295). In this assay, channel expressing HEK cell lines seeded in 384 well assay plates are loaded with a membrane permeant fluorescent Ca^2+ indicator dye, whose 510 nm green emission signal increases in response to elevation of intracellular Ca^2+ concentration. The basal fluorescence from the cells is monitored in real time, followed by the acute addition of test compounds. If the compound is an agonist at any of the non-selective cation channels, the latter open and allow the movement of extracellular Ca^2+ ions into the cell cytoplasm, where they bind to the Ca^2+ indicator dye, and produce an increase in fluorescence output signal, which is detected by a cooled CCD imaging camera.
(§1) Materials and Methods: Reagents: The acetomethoxy (AM) ester of the Ca^2+ indicator dye Fluo-4 was obtained from InVitrogen, (Carlsbad, Calif.). Acetylcholine and all buffer constituents were purchased from Sigma Chemical Company, St. Louis, Mo. G418 and Minimal Essential Medium were purchased from InVitrogen Life Technologies, Carlsbad, Calif. Fetal bovine serum was purchased from (InVitrogen, Carlsbad, Calif.).
(§2) Cell Culture: HEK-293 cells were grown in Minimal Essential Medium containing 10% (v/v) fetal bovine serum at 37° C. in a 5% CO2 incubator. HEK-293 cells stably expressing the ion channels were grown in the same medium with the addition of 500 μg/ml G418.
Ca^2+ flux assays of Ca^2+ channels expressed in HEK-293 cells: HEK-293 cells expressing the ion channels of interest were plated in 384 well, black-walled, clear-bottomed, poly-D-lysine coated plates at a density of ˜20,000 cells/well in 20 μl of Minimal Essential Medium containing 10% (v/v) fetal bovine serum and incubated for 2 days at 29° C. in a 5% CO2 incubator. Prior to assay, cells were loaded with the Fluo-4 AM ester. Cell loading was accomplished by removing the culture medium and replacing it with 30 μl/well of the AM ester of the dye (5 μM) mixed with Hanks Balanced Salt Solution (#14175-095) containing 20 mM HEPES, 2.5 mM probenecid, 0.5 mM CaCl2, 1 mM MgCl2 and 10 μM atropine. Dye loading was allowed to proceed for 90 minutes at room temperature at which time the dye loading solution was removed and replaced with 40 μl/well of Hanks buffer. Cells loaded with dye were loaded onto a FLIPR384 (Molecular Devices, Sunnyvale, Calif.). Fluo-4 dye was excited using the 488 nm line of an argon laser. Emission was filtered using a 540+/−30 nm bandpass filter. […]
In turn, `O=C(c1n[nH]c2ccccc12)N1C2CC3CCN(C2)CC31` (stereo not drawn) [Example 1, (hexahydro-2,6-methanopyrrolo[2,3-c]pyridin-1(2H)-yl)(1H-indazol-3-yl)methanone] came in with an EC50 of 73 nM.

In turn, `COc1ccc2c(C(=O)N3C4CC5CCN(C4)CC53)n[nH]c2c1` (stereo not drawn) [Example 9, (6-methoxy-1H-indazol-3-yl)(hexahydro-2,6-methanopyrrolo[2,3-c]pyridin-1(2H)-yl)methanone] showed an EC50 of 260 nM.

`COc1cccc2[nH]nc(C(=O)N3C4CC5CCN(C4)CC53)c12` (stereo not drawn) [Example 15, (4-methoxy-1H-indazol-3-yl)(hexahydro-2,6-methanopyrrolo[2,3-c]pyridin-1(2H)-yl)methanone] yielded an EC50 of over 50000 nM.

`O=C(c1ccc(Cl)cc1)N1C2CC3CCN(C2)CC31` (stereo not drawn) [Example 13, (4-chlorophenyl)(hexahydro-2,6-methanopyrrolo[2,3-c]pyridin-1(2H)-yl)methanone] displayed an EC50 of over 100000 nM.

The assay is the same for the next values; noted with them: Table 2; Ca2+ flux, HEK-293 cells expressing the channel.
On to `O=C(c1n[nH]c2cc(F)ccc12)N1[C@H]2C[C@@H]3CC[N@](C2)C[C@@H]31` [Example 21, (6-fluoro-1H-indazol-3-yl)((2S,3aS,6R,7aR)-hexahydro-2,6-methanopyrrolo[2,3-c]pyridin-1(2H)-yl)methanone], for which the midpoint of the response, the EC50, lay at 80 nM.

For the compound `O=C(c1cc(-c2ccccc2)[nH]n1)N1[C@H]2C[C@@H]3CC[N@](C2)C[C@@H]31` [Example 19, ((2S,3aS,6R,7aR)-hexahydro-2,6-methanopyrrolo[2,3-c]pyridin-1(2H)-yl)(5-phenyl-1H-pyrazol-3-yl)methanone], the EC50 was over 100000 nM.

The assay is the same for the next values; noted with them: Table 3; Ca2+ flux, HEK-293 cells expressing the channel.
As for `O=C(c1noc2ccccc12)N1[C@@H]2C[C@H]3CC[N@@](C2)C[C@H]31` [Example 29, benzo[d]isoxazol-3-yl((2R,3aR,6S,7aS)-hexahydro-2,6-methanopyrrolo[2,3-c]pyridin-1(2H)-yl)methanone], it took 3100 nM to reach a half-maximal effect (EC50).

`O=C(c1nccc2ccccc12)N1[C@@H]2C[C@H]3CC[N@@](C2)C[C@H]31` [Example 25, ((2R,3aR,6S,7aS)-hexahydro-2,6-methanopyrrolo[2,3-c]pyridin-1(2H)-yl)(isoquinolin-1-yl)methanone]: a half-maximal response (EC50) required 45000 nM.

The target of a further assay is T2, α7-HI (Rattus norvegicus, UniProt Q05941).
T2 construct: expressed in transfected cells
T2 sequence (Q05941 23-502): as above
The assay can be described thus: FLIPR Ca2+-sensitive fluorescence assay, α7-HI (agonist activity) in HEK 293 cells. The settings on record: Table 4; Ca2+ flux, HEK-293 cells expressing the channel; read-out: FLIPR α7-HI (EC50). In kind it is cell-based. As for the experimental part:
I) α7 Nicotinic Acetycholine Receptor Binding. Membranes were prepared for binding using HEK293 cells stably expressing the rat α7 nicotinic acetycholine receptor (rat α7 nAChR). Cells were homogenized at 4° C. in hypotonic lysis buffer consisting of 10 mM Tris (pH 7.4), 5 mM EDTA and protease inhibitors and centrifuged at 32000×g for 20 minutes. The pellet was washed once in membrane wash buffer consisting of 50 mM Tris (pH 7.4), 1 mM EDTA and protease inhibitors and centrifuged at 32000×g for 20 minutes. This pellet was then resuspended in assay buffer consisting 50 mM KH2PO4 (pH 7.4 at 25° C.), 1 mM EDTA, 0.005% Triton-X 100 and 0.1% (v/v) Sigma Protease Inhibitor Cocktail. Aliquots were then frozen in dry ice/ethanol and kept at −80° C. until the day of the assay. II) A Ca^2+-Sensitive, Fluorescence-Based Assay α-7 for Nicotinic Acetylcholine Receptor Channel Function in Mammalian Cells (“FLIPR”). Summary: Lead compounds are evaluated for agonist activity at α-7, α3β4, α4αβ2, and α1β1δ1ε sub-types of nicotinic ACh receptor ion channels expressed in mammalian HEK 293 cells. Agonist potency and efficacy values are determined from kinetic fluorescence Ca^2+ influx measurements made using a 384 well FLIPR (Fluorescence Image Plate Reader). […] In this assay, channel expressing HEK cell lines seeded in 384 well assay plates are loaded with a membrane permeant fluorescent Ca^2+ indicator dye, whose 510 nm green emission signal increases in response to elevation of intracellular Ca^2+ concentration. The basal fluorescence from the cells is monitored in real time, followed by the acute addition of test compounds.
as §1, §2
Ca^2+ flux assays of Ca^2+ channels expressed in HEK-293 cells: HEK-293 cells expressing the ion channels of interest were plated in 384 well, black-walled, clear-bottomed, poly-D-lysine coated plates at a density of ˜20,000 cells/well in 20 μl of Minimal Essential Medium containing 10% (v/v) fetal bovine serum and incubated for 2 days at 29° C. in a 5% CO2 incubator. Prior to assay, cells were loaded with the Fluo-4 AM ester. […] Dye loading was allowed to proceed for 90 minutes at room temperature at which time the dye loading solution was removed and replaced with 40 μl/well of Hanks buffer. Cells loaded with dye were loaded onto a FLIPR384 (Molecular Devices, Sunnyvale, Calif.). Fluo-4 dye was excited using the 488 nm line of an argon laser. Emission was filtered using a 540+/−30 nm bandpass filter. For evaluation of the effects of test compounds using the Ca^2+ flux assay, compounds to be tested were provided in assay ready plates. For nicotinic receptor ion channel expressing cells, the assay was initiated by the addition of 20 μl/well of Hanks buffer containing test compounds. For all assays, data were collected at 1 Hz for 10 seconds (baseline), at which time the compound containing stimulus buffers are added, and further measurements collected at 0.33 Hz for 3 min.
Data Analysis: The statistical robustness of the nicotinic receptor Ca^2+ flux assays is determined from blanks and totals wells. […] The raw fluorescence units data files generated on the FLIPR plate reader are automatically exported and processed by in-house data analysis tools.
Turning to `O=C(c1n[nH]c2cc(F)ccc12)N1C2CC3CN(CCC31)C2` (stereo not drawn) [Example 42, ((2S*,3aR*,5R*,7aS*)-(6-fluoro-1H-indazol-3-yl)(hexahydro-2,5-methanopyrrolo[3,2-c]pyridin-1(6H)-yl)methanone], the EC50 was 54 nM.

On to `O=C(c1n[nH]c2ccccc12)N1C2CC3CN(CCC31)C2` (stereo not drawn) [Example 34, ((2S*,3aR*,5R*,7aS*)-hexahydro-2,5-methanopyrrolo[3,2-c]pyridin-1(6H)-yl)(1H-indazol-3-yl)methanone], for which the EC50 turned out to be 29 nM.

Consider `O=C(c1noc2ccccc12)N1C2CC3CN(CCC31)C2` (stereo not drawn) [Example 47, ((2S*,3aR*,5R*,7aS*)-benzo[d]isoxazol-3-yl(hexahydro-2,5-methanopyrrolo[3,2-c]pyridin-1(6H)-yl)methanone], for which the EC50 stood at 1300 nM.

For `O=C(c1cc(-c2ccccc2)n[nH]1)N1C2CC3CN(CCC31)C2` (stereo not drawn) [Example 38, ((2S*,3aR*,5R*,7aS*)-(hexahydro-2,5-methanopyrrolo[3,2-c]pyridin-1(6H)-yl)(3-phenyl-1H-pyrazol-5-yl)methanone], the EC50 was over 100000 nM.

`O=C(c1cc2cccc(Cl)c2s1)N1C2CC3CN(CCC31)C2` (stereo not drawn) [Example 35, ((2S*,3aR*,5R*,7aS*)-(7-chloro-benzo[b]thiophen-2-yl)(hexahydro-2,5-methanopyrrolo[3,2-c]pyridin-1(6H)-yl)methanone]: the EC50 amounted to 5600 nM.

`O=C(c1ccc(Cl)cc1)N1C2CC3CN(CCC31)C2` (stereo not drawn) [Example 36, ((2S*,3aR*,5R*,7aS*)-(4-chlorophenyl)(hexahydro-2,5-methanopyrrolo[3,2-c]pyridin-1(6H)-yl)methanone]: the EC50 was over 100000 nM.

In the case of `O=C(c1n[nH]c2ccccc12)N1[C@H]2C[C@@H]3C[N@@](CC[C@@H]31)C2` (single isomer, unassigned) [Example 34a], the EC50 was determined as 7.5 nM.

Consider `COc1ccc2[nH]nc(C(=O)N3C4CC5CN(CCC53)C4)c2c1` (stereo not drawn) [Example 41, ((2S*,3aR*,5R*,7aS*)-(5-methoxy-1H-indazol-3-yl)(hexahydro-2,5-methanopyrrolo[3,2-c]pyridin-1(6H)-yl)methanone], for which the EC50 was over 100000 nM.

For the compound `COc1ccc2c(C(=O)N3C4CC5CN(CCC53)C4)n[nH]c2c1` (stereo not drawn) [Example 43, ((2S*,3aR*,5R*,7aS*)-(6-methoxy-1H-indazol-3-yl)(hexahydro-2,5-methanopyrrolo[3,2-c]pyridin-1(6H)-yl)methanone], the EC50 was found to be 23 nM.

`O=C(c1n[nH]c2ccc(Br)cc12)N1C2CC3CN(CCC31)C2` (stereo not drawn) [Example 44, ((2S*,3aR*,5R*,7aS*)-(5-bromo-1H-indazol-3-yl)(hexahydro-2,5-methanopyrrolo[3,2-c]pyridin-1(6H)-yl)methanone]: the EC50 is over 100000 nM.
